Test results published in patent US20250186397A1, “COMPOUNDS FOR THE USE IN THE TREATMENT OF MOOD DISORDERS” (Kanna Health Ltd, priority 2022, published 2025).
pIC50: −log10 of the molar value. Read-outs that look alike come from different tables or passages of the source.

How the values were obtained:
[1] = target: human recombinant PDE-4B1 (Homo sapiens, UniProt Q07343); assay: PDE4-B1 assay (SPA); assay type: biochemical; details: human recombinant enzyme, 450 nM cAMP
Experimental: (§1) Test compounds (conc range), reference compound or vehicle control were added to assay buffer containing (in mM); Tris/HCl, pH 7.4 (40), MgCl2 (8) and EGTA/NaOH (1.7), containing 450 nM cAMP (450 nM) and 0.25 μCi (PDE-4B1) or 0.0125 μCi (PDE-4D2) [^3H] CAMP. 20 mins after addition of human recombinant PDE-4B1 (1.2 IEU) or PDE-4D2 (1.5 IEU), SPA beads were added and incubated at 22° C. for a further 30 mins. [^3H]5′AMP was quantified by a standard scintillation counting method.
(§2) Data were expressed as the mean of two technical replicates for each data point, and percent inhibition calculated relative to maximum inhibition observed in the presence of the reference comparator rolipram for PDE-4 assays, and imipramine for serotonin assays.

[2] = target: human recombinant PDE-4D2 (Homo sapiens, UniProt Q08499); assay: PDE4-D2 assay (SPA); assay type: biochemical
Experimental: as §1, §2

C57B6J mice [3] = assay: Sucrose preference test after chronic mild unpredictable stress; assay type: in vivo; details: relative to stress vehicle; for sucrose preference: all time points tested
Experimental: (§3) FIG. 4. Effect of mesembrenol (0.3, 1 and 3 mg/kg, i.p.) administered 30 minutes pre-test on sucrose preference following chronic mild unpredictable stress. Data represents cumulative % preference for sucrose solution over water at the 4, 8, 12 and 24 hour timepoints of the test period. Analysis by repeat measures two-way ANOVA followed by multiple comparisons with Dunnet's correction; *-****P<0.05-0.0001 vs stress vehicle (n=8).
as §3, with “5.” for “4.”, “mesembranol” for “mesembrenol”, “by” for “by repeat measures”, “Sidak's” for “Dunnet's”, “*-*P<0.001-0.0001” for “*-****P<0.05-0.0001”
(§4) C57BI6J mice, will be housed in groups of 4, will be exposed to a variety of mild stressors for a period of four weeks.
(§5) The stressors will include wet bedding, 40° cage tilt, introduction of intruder mouse from different experimental cohort, food deprivation, water deprivation, overnight illumination, and presence of soiled rat bedding as an aversive odour. These stressors are randomly scheduled over each weekly period and repeated for the duration of the experiment. Each stressor is applied for a period of 8-16 hours.
(§6) A cohort of depression-like phenotype in adult male C57B6J mice is produced by employing a four-week mild unpredictable stress protocol.
An additional readout was used to assess antidepressant-like activity of the test compounds using a further measure of anhedonia, the sucrose preference test.
During this test, mice are housed individually and provided, for 24 hours, a free choice between two bottles, one with 1% sucrose solution and another with filtered tap water.
To prevent possible effects of side preference in drinking behaviour, the position of the bottles is swapped after 12 hours. The consumption of water and sucrose solution is estimated simultaneously in control and experimental groups by weighing the bottles. The sucrose intake is calculated as an amount of consumed sucrose in mg per gram body weight. The preference for sucrose is calculated as a percentage of consumed sucrose solution of the total amount of liquid drunk.
A decrease of sucrose preference below 65%, is taken as the criterion for anhedonia. […] In addition, mice with a lower than 65% sucrose preference in other models display features of anhedonia and depression, such as an increased threshold of intracranial self-stimulation and sleep disturbances.
The effect of 2 weeks treatment with imipramine or the acute effect of the test compound or vehicle is determined over this 24 hour period.

C57B6J mice [4] = assay: Female urine sniffing test after chronic mild unpredictable stress; assay type: in vivo; details: 60 minutes pre-test; for time sniffing female estrous urine: relative to vehicle
Experimental: (§7) FIG. 2. Effect of mesembrenol (0.3, 1 and 3 mg/kg, i.p.) administered 60 minutes pre-test on preference to examine the female estrous urine treat following chronic mild unpredictable stress. Data represents total time (sec) engaged in sniffing and investigating the urine soaked cotton tip during a 3 minute trial period. Analysis by one-way ANOVA followed by multiple comparisons with Sidak's correction; **-****P<0.01-0.0001 vs stress vehicle (n=8).
as §7, with “3.” for “2.”, “mesembranol” for “mesembrenol”
as §4, §5, §6
Following two weeks treatment with imipramine, or acute treatment with vehicle or the test compounds (mesembrenol and mesembranol), the reversal of stress induced depression-like behaviour was determined using a measure of anhedonia, female urine sniffing preference.
The test compounds were evaluated at three doses with comparison made to vehicle control, no stress control and the reference control imipramine (n=8). […]
Animals are subsequently transferred to individual cages and exposed for a 3 minute period to a cotton tipped applicator which is dipped in water and attached to the side of the cage. The time each animal spends sniffing the water-impregnated cotton tipped applicator is scored manually by the observer who is blinded to group treatments.
Following a 45 minute interval in the absence of a cotton tipped applicator, an applicator dipped in the urine of a female mice in oestrus is presented and the time spent sniffing the urine-impregnated cotton bud is recorded over a 3 minute period. […]
Testing is conducted under low level red light and behaviour is scored remotely via a video camera placed above the cage.

zebrafish = details: isolated alkaloids, Maphanga et al., 2022; cited from earlier work
C57B6J mice [5] = assay: Forced swim test after chronic mild unpredictable stress; assay type: in vivo; details: 3 mg/kg i.p., 30 minutes pre-test, relative to vehicle
Experimental: (§8) FIG. 6. Effect of mesembrenol (0.3, 1 and 3 mg/kg, i.p.) administered 30 minutes pre-test on chronic mild unpredictable stress induced depression phenotype in the forced swim test. Data represents (A) latency to immobility (sec) and (B) total time immobile in the four minute evaluation phase of the procedure. Analysis by one-way ANOVA followed by multiple comparisons with Sidak's and Dunn's correction; **-****P<0.01-0.0001 vs stress vehicle (n=8).
as §8, with “7.” for “6.”, “mesembranol” for “mesembrenol”, “Sidak's” for “Sidak's and Dunn's”, “***-****P<0.001-0.0001” for “**-****P<0.01-0.0001”
as §4, §5, §6
The effect of treatment with the test compounds on chronic mild stress induced immobility in the forced swim test was tested to establish antidepressant-like activity.
Following the 24 hour sucrose preference test, animals are treated again with the test compound, imipramine or vehicle. Animals are individually placed in clear Plexiglas cylinders (25 cm high; 10 cm in diameter) which are filled to a depth of 15 cm with water at 22-25° C.
Testing is conducted under low level red light and behaviour recorded over a 6 minute period using a video camera placed above the cylinder. During the test the animals are placed in the cylinder and allowed to habituate for two minutes before the cumulative duration of time spent immobile is determined over the following 4 minutes. Latency to immobility is recorded.
Movements necessary for the animal to maintain its head above water will not be scored as activity.

in vivo = details: male, C57BI/6J, mouse, ip, 10 mg/kg
Experimental: Groups of male C57BI/6J mice received a single administration of test compound (10 mg/kg; i.p.) in methylcellulose (0.5% w/v).
Three mice from each dose group were subject to cardiac puncture under general anaesthesia at 0.25, 0.50, 1.00, 2.00, 4.00, 7.00 and 24.0 hours post-dose and plasma samples generated for application of standard LC-MS/MS bioanalytical methods.
Quantitation of compound concentration was derived from reference calibration data. Pharmacokinetic data were derived from serial plasma concentrations.

[6] = target: T1, human serotonin transporter (Homo sapiens, UniProt P31645); assay: SERT assay, [3H] serotonin uptake in transfected CHO cells; assay type: cell-based; details: CHO cells with human serotonin transporter, 180 min
T1 construct: expressed in transfected cells; host or cells: CHO cells
Experimental: Test compounds (conc range), reference compound or vehicle control were incubated for 180 min at room temperature with CHO cells stably transfected with the human serotonin transporter (5×10^3 cells/well) with 0.15 μM [3H] serotonin in the presence or absence of the test or reference compound in buffer containing (in mM); Tris/HCl (pH 7.4) (5), HEPES/Tris (7.5), NaCl (120), KCl (5.4), CaCl2) (1.2), MgSO4 (1.2), Glucose (5) and ascorbic acid (1). Following incubation, [3H] serotonin uptake was quantified by a standard scintillation counting method.
as §2

C57B6J mice [7] = assay: Elevated plus maze after chronic mild unpredictable stress; assay type: in vivo
Experimental: (§9) FIG. 8. Effect of mesembrenol (0.3, 1 and 3 mg/kg, i.p.) administered 30 minutes pre-test on chronic mild unpredictable stress induced anxiety phenotype in the elevated plus maze. Data represents (A) latency to open arm entry (sec), (B) number of open arm entries (a.u.) and (C) total time in open arms of the apparatus during the ten minute procedure. Analysis by one-way ANOVA followed by multiple comparisons with Dunn's and Sidak's correction; *-**** P<0.05-0.0001 vs stress vehicle (n=8).
as §9, with “9.” for “8.”, “mesembranol” for “mesembrenol”
as §4, §5, §6
Finally, the effect of the test compounds on chronic unpredictable mild stress anxiogenic phenotype in the elevated plus-maze to determine anxiolytic-like activity.
The apparatus consists of 4 raised flat runways extending from a central platform raised 1 m above the floor of a 2 m wide water maze (prevents escape in the rare event of an animal falling from the apparatus). Two arms have enclosed sides while the others are open.
The mouse version of the apparatus employs maze arms of 30 cm length and 6 cm width, where the enclosed arms have walls 30 cm high. The room is lit with low level indirect lighting.
Animals are allowed to freely explore the apparatus over a 10 minute trial with remote video analysis capturing the pattern of animal movement. The time animals spend exploring the open arms of the maze during the trial is inversely related to the level of stress/anxiety felt by the animal.
Endpoints recorded are the latency (sec) to enter open arms of the maze, total number of open arm entries (a.u.) and total time (sec) spent in the open arms of the plus-maze.

[8] = 3 mg/kg i.p., mesembrenol p<0.001, mesembranol p<0.01
[9] = 3 mg/kg i.p., 30 minutes pre-test, relative to vehicle

human recombinant PDE-4B1, sequence (Q07343 whole entry): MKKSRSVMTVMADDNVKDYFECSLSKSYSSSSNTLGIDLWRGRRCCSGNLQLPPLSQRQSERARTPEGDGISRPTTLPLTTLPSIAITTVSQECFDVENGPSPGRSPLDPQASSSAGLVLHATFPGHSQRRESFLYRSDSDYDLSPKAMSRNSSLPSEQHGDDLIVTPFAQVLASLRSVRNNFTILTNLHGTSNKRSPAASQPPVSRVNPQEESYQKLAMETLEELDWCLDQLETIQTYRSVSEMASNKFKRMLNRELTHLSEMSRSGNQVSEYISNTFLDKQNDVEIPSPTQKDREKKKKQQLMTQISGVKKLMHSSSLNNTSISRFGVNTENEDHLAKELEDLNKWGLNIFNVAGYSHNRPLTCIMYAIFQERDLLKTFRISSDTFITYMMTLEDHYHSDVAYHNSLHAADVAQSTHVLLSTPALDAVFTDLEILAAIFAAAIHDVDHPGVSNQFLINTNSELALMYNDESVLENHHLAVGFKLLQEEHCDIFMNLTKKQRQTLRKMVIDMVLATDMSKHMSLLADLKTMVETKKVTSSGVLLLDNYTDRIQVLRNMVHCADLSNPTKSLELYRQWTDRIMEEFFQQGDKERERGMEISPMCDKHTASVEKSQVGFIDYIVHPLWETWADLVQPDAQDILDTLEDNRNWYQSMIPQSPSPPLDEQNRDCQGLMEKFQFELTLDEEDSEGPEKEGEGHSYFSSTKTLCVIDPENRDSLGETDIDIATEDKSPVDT
T1 sequence (P31645 whole entry): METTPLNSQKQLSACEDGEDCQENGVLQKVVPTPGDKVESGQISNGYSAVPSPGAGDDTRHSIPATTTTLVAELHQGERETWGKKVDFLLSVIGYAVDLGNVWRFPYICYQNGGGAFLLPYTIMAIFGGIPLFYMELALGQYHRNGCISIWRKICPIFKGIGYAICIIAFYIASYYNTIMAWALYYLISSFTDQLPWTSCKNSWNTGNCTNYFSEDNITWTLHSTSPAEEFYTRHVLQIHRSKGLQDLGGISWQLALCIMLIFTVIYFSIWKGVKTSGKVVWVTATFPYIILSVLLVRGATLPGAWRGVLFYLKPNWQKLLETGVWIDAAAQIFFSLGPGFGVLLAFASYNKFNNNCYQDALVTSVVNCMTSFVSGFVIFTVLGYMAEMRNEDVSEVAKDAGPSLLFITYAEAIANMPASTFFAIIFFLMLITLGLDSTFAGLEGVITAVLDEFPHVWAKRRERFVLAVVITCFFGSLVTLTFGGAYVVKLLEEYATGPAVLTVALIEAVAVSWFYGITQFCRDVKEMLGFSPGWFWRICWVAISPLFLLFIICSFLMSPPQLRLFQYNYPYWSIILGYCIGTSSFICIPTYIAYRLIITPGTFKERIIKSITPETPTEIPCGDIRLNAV
human recombinant PDE-4D2, sequence (Q08499 303-809 limits assumed): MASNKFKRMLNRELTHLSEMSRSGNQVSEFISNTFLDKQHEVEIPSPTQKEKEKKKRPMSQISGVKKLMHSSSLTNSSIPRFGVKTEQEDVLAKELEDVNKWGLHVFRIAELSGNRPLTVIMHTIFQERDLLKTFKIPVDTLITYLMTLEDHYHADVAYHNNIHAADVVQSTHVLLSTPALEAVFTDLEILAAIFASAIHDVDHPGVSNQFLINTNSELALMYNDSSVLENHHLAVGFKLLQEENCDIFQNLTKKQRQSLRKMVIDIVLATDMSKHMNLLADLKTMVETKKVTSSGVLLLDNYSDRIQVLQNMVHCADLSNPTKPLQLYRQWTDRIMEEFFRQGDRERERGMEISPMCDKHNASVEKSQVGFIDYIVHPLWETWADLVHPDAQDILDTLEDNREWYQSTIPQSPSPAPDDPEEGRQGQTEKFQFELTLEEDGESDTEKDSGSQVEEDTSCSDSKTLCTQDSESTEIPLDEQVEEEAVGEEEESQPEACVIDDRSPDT

In the case of `CN(C)CCCN1c2ccccc2CCc2ccccc21` [Imipramine, reference compound], the pIC50 [1] was 5.80 and the pIC50 ([2]; human recombinant enzyme, 450 nM cAMP, read-out: IC50 PDE-4D2) was 6.52 to 6.84.

For `COc1ccc(C23CCC(O)CC2N(C)CC3)cc1OC` (centres unmarked) [Mesembranol, 3a-(3,4-dimethoxyphenyl)-1-methyl-3,4,5,6,7,7a-hexahydro-2H-indol-6-ol], the pIC50 [1] was 5.08, the sucrose preference (C57B6J mice [3]; 3 mg/kg i.p.) was “statistically significant increase” and the “time sniffing female estrous urine” value (C57B6J mice [4]; [8]) was “significant increase”. For the same molecule, the “effect in zebrafish model of anxiety” value (zebrafish) was “anxiolytic-like effect”, the immobility time (C57B6J mice [5]) was “significant reduction” and the latency to immobility (C57B6J mice [5]) was “no changes”. It also gave an AUC(0-inf) (in vivo) of 649 ng·h/mL, a Cmax (in vivo) of 834 ng/mL and a Tmax (in vivo) of 18 min. For the same molecule, the half-life (in vivo) was 21.8 min, the pIC50 [6] was 6.84 and the “number of open arm entries” value (C57B6J mice [7]; [9]) was “significant increase”. For the same molecule, the “time spent in the open arms” value (C57B6J mice [7]; [9]) was “significant increase” and the pIC50 [2] was 5.01.

For `COc1ccc(C23C=CC(O)CC2N(C)CC3)cc1OC` (centres unmarked) [Mesembrenol], the pIC50 [1] was 4.56, the sucrose preference (C57B6J mice [3]; 1 mg/kg i.p.) was “significant increase” and the sucrose preference (C57B6J mice [3]; 3 mg/kg i.p.) was “significant increase”. The “sucrose preference, dose response” value (C57B6J mice [3]; 0.3, 1 and 3 mg/kg i.p., 30 minutes pre-test, all time points (4, 8, 12, 24 hour)) was “dose dependent increase”, the “time sniffing female estrous urine” value (C57B6J mice [4]; 1 mg/kg i.p., mesembrenol p<0.01) was “significant increase” and the “time sniffing female estrous urine” value (C57B6J mice [4]; [8]) was “significant increase”. The “time sniffing female estrous urine, dose response” value (C57B6J mice [4]; 0.3, 1 and 3 mg/kg i.p., relative to stress vehicle) was “dose dependent increase”, the “effect in zebrafish model of anxiety” value (zebrafish) was “anxiolytic-like effect” and the immobility time (C57B6J mice [5]) was “significant reduction”. The latency to immobility (C57B6J mice [5]) was “significant increase”, the AUC(0-inf) (in vivo) was 352 ng·h/mL and the Cmax (in vivo) was 503 ng/mL. The Tmax (in vivo) was 16 min, the half-life (in vivo) was 26.3 min and the pIC50 [6] was 6.34. The “time spent in the open arms” value (C57B6J mice [7]; 1 mg/kg i.p., 30 minutes pre-test, relative to vehicle) was “significant increase”, the “time spent in the open arms” value (C57B6J mice [7]; [9]) was “significant increase” and the “number of open arm entries” value (C57B6J mice [7]; 0.3, 1 and 3 mg/kg i.p., versus the vehicle group) was “no change”. The pIC50 [2] was 5.41.

Molecule `COc1ccc(C2CNC(=O)C2)cc1OC1CCCC1` (centres unmarked) [Rolipram, reference compound] has a pIC50 [6] of 7.63.

In the case of `COc1ccc([C@@]23C=CC(=O)C[C@@H]2N(C)CC3)cc1OC` [mesembrenone], the “effect in zebrafish model of anxiety” value (zebrafish) is listed as “anxiolytic-like effect”.

For `COc1ccc([C@@]23CCC(=O)C[C@@H]2N(C)CC3)cc1OC` [mesembrine], the “effect in zebrafish model of anxiety” value (zebrafish) is given as “anxiolytic-like effect”.
